In publication PMC8148378 (Chemical Science, 2019):
Values after ≈ are worked out from the molar mass of the structure shown.

Tests used:
S. aureus ATCC29213 = assay: MIC determination; type: cell-based; conditions: Staphylococcus aureus, ATCC29213, read-out: MIC S. aureus, ATCC29213
E. coli ΔtolC = assay: MIC determination; type: cell-based; conditions: Escherichia coli, read-out: MIC E. coli ΔtolC
E. coli WT DSM-1116 = assay: MIC determination; type: cell-based; conditions: Escherichia coli, DSM1116, read-out: MIC E. coli WT, DSM-1116
[1] = tested on: P. aeruginosa ΔmexAB (PA14ΔmexAB); assay: MIC determination; type: cell-based; conditions: Pseudomonas aeruginosa, read-out: MIC P. aeruginosa ΔmexAB
P. aeruginosa WT PA14 = assay: MIC determination; type: cell-based, Pseudomonas aeruginosa; conditions: Pseudomonas aeruginosa, PA14, read-out: MIC P. aeruginosa WT, PA14
E. coli gyrase = E. coli gyrase (Escherichia coli, UniProt P0AES4); assay: DNA gyrase supercoiling assay, method b; type: biochemical
E. faecalis ATCC-29212 = assay: MIC determination, larger panel; type: cell-based; conditions: Enterococcus faecalis, ATCC29212, read-out: MIC E. faecalis
A. baumannii DSM-30008 = assay: MIC determination, larger panel; type: cell-based; conditions: Acinetobacter baumannii, DSM30008, read-out: MIC A. baumannii, DSM-30008
[2] = tested on: P. aeruginosa ESBL 1 DSM-24600; assay: MIC determination, larger panel; type: cell-based; conditions: Pseudomonas aeruginosa, DSM24600, read-out: MIC P. aeruginosa ESBL 1
P. mirabilis DSM-4479 = assay: MIC determination, larger panel; type: cell-based; conditions: Proteus mirabilis, DSM4479, read-out: MIC P. mirabilis
E. coli WT-3 = assay: MIC determination, larger panel; type: cell-based; conditions: Escherichia coli, WT3, read-out: MIC E. coli WT-3

E. coli gyrase, sequence (P0AES4 whole entry): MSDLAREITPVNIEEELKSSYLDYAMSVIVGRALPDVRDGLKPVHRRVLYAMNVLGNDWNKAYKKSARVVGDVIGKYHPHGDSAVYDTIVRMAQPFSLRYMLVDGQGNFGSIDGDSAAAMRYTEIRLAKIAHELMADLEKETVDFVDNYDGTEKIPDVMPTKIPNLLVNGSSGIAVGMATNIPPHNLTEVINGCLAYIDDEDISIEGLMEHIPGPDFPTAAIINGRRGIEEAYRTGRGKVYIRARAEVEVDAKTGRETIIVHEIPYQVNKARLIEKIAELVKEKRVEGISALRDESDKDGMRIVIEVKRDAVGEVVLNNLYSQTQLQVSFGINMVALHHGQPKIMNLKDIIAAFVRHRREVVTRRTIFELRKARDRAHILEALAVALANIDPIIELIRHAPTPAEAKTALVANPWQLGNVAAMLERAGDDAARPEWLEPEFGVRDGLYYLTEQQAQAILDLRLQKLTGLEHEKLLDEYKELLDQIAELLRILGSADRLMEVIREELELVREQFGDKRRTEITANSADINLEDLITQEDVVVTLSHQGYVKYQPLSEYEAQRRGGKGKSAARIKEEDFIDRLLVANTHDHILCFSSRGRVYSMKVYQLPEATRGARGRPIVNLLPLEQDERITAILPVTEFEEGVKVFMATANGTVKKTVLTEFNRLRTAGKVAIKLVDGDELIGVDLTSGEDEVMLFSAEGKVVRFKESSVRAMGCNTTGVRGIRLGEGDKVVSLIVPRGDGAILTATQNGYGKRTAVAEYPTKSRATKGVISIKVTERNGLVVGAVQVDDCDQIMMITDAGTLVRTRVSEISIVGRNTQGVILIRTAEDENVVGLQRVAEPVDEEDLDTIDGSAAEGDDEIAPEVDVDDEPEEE

Row | SMILES | MIC (S. aureus ATCC29213) | MIC (E. coli ΔtolC) | MIC (E. coli WT DSM-1116) | MIC [1] | MIC (P. aeruginosa WT PA14) | also measured
1 | CC(C)Oc1c(NC(=O)c2ccc(NC(=O)[C@H](CC(N)=O)NC(=O)c3ccc(NC(=O)c4ccc(C(F)(F)F)cc4)cc3)cc2)ccc(C(=O)Nc2ccc(C(=O)O)cc2)c1O [Compound 23] | 16 to 32 µg/mL (≈ 18.7 to 37.4 µM) |  |  |  |  | 
2 | CC(C)Oc1c(NC(=O)c2ccc(NC(=O)c3ccc(NC(=O)[C@H](CC(N)=O)NC(=O)c4ccc(NC(=O)c5ccc([N+](=O)[O-])cc5)cc4)cc3)c(OC(C)C)c2O)ccc(C(=O)O)c1O [Compound 78] | 0.05 µg/mL (≈ 0.0552 µM) | 0.125 µg/mL (≈ 0.138 µM) | 0.5 µg/mL (≈ 0.552 µM) | 1 µg/mL (≈ 1.1 µM) | > 64 µg/mL | IC50 (E. coli gyrase): 0.2 µM
3 | CC(C)Oc1c(NC(=O)c2ccc(NC(=O)[C@H](CC(N)=O)NC(=O)c3ccc(NC(=O)c4ccccc4)cc3)cc2)ccc(C(=O)Nc2ccc(C(=O)O)cc2)c1O [Compound 15] |  |  | > 64 µg/mL |  |  | 
4 | COC(=O)c1ccc(NC(=O)c2ccc(NC(=O)c3ccc(NC(=O)[C@H](CC(N)=O)NC(=O)c4ccc(NC(=O)c5ccc([N+](=O)[O-])cc5)cc4)cc3)c(OC(C)C)c2)cc1 [Compound 129] | > 64 µg/mL | > 64 µg/mL | > 64 µg/mL | > 64 µg/mL | > 64 µg/mL | 
5 | O=C(O)c1cn(C2CC2)c2cc(N3CCNCC3)c(F)cc2c1=O [ciprofloxacin, reference compound] |  |  |  |  |  | MIC (E. faecalis ATCC-29212): 1 µg/mL (≈ 3.02 µM); MIC (A. baumannii DSM-30008): 0.32 µg/mL (≈ 0.966 µM); MIC [2]: 8 µg/mL (≈ 24.1 µM); MIC (P. mirabilis DSM-4479): 0.06 µg/mL (≈ 0.181 µM)
6 | CC(C)Oc1c(NC(=O)c2ccc(NC(=O)[C@H](CC(N)=O)NC(=O)c3ccc(NC(=O)c4ccc(C#N)cn4)cc3)cc2)ccc(C(=O)Nc2ccc(C(=O)O)cc2)c1O [Compound 31] |  |  |  |  |  | MIC (E. coli WT-3): 2 µg/mL (≈ 2.46 µM)
7 | C/C(=C\c1ccc(C#N)cc1)C(=O)Nc1ccc(C(=O)N[C@@H](CC(N)=O)C(=O)Nc2ccc(C(=O)Nc3ccc(C(=O)Nc4ccc(C(=O)O)c(O)c4OC(C)C)c(O)c3OC(C)C)cc2)cc1 [Compound 82] | 0.06 µg/mL (≈ 0.0648 µM) | ≤ 0.03 µg/mL | 0.125 µg/mL (≈ 0.135 µM) | 0.25 µg/mL (≈ 0.27 µM) | 1 µg/mL (≈ 1.08 µM) | IC50 (E. coli gyrase): 0.2 µM
8 | CC(C)Oc1c(NC(=O)c2ccc(NC(=O)[C@H](CC(N)=O)NC(=O)c3ccc(NC(=O)c4ccc(C#N)cc4)cc3)cc2)ccc(C(=O)O)c1O [Compound 67] |  |  |  |  |  | fold decrease of gyrase inhibition (E. coli gyrase; compared to 22): more than 100 fold
9 | CC(C)Oc1c(NC(=O)c2ccc(NC(=O)[C@H](CC(N)=O)NC(=O)c3ccc(NC(=O)c4ccc(NC(=O)c5ccc([N+](=O)[O-])cc5)cc4)cc3)cc2)ccc(C(=O)Nc2ccc(C(=O)O)cc2)c1O [Compound 24] |  |  |  |  |  | fold reduced inhibitory activity in the gyrase assay (E. coli gyrase; compared to 4): 20 fold
10 | C/C(=C\c1ccc(C#N)cc1)C(=O)Nc1ccc(C(=O)N[C@@H](CC(N)=O)C(=O)Nc2ccc(C(=O)Nc3ccc(C(=O)Nc4ccc(C(=O)O)cc4)c(O)c3OC(C)C)cc2)cc1 [Compound 46] |  |  |  |  |  | MIC (A. baumannii DSM-30008): 0.06 µg/mL (≈ 0.0704 µM); MIC (E. coli WT-3): 0.125 µg/mL (≈ 0.147 µM)
11 | CC(C)Oc1cc(C(=O)Nc2ccc(C(=O)O)cc2)ccc1NC(=O)c1ccc(NC(=O)[C@H](CC(N)=O)NC(=O)c2ccc(NC(=O)c3ccc([N+](=O)[O-])cc3)cc2)cc1 [Compound 52] | > 64 µg/mL | 0.06 µg/mL (≈ 0.0735 µM) | > 64 µg/mL | 1 µg/mL (≈ 1.23 µM) | > 64 µg/mL | 
12 | CC(C)Oc1c(NC(=O)c2ccc(NC(=O)c3ccc(NC(=O)[C@H](CC(N)=O)NC(=O)c4ccc(NC(=O)c5ccc(C#N)cc5)cc4)cc3)c(OC(C)C)c2O)ccc(C(=O)O)c1O [Compound 79] | ≤ 0.03 µg/mL | ≤ 0.03 µg/mL | 0.25 µg/mL (≈ 0.282 µM) | 1 µg/mL (≈ 1.13 µM) | 2 µg/mL (≈ 2.26 µM) | IC50 (E. coli gyrase): 0.6 µM
13 | CC(C)COc1c(NC(=O)c2ccc(NC(=O)[C@H](CC(N)=O)NC(=O)c3ccc(NC(=O)c4ccc([N+](=O)[O-])cc4)cc3)cc2)ccc(C(=O)Nc2ccc(C(=O)O)cc2)c1O [Compound 53] | 1 µg/mL (≈ 1.18 µM) | 2 µg/mL (≈ 2.36 µM) | > 64 µg/mL | > 64 µg/mL | > 64 µg/mL | 
